Measured values reported in US4629781A, “Chemical process for preparing L 17392 (deglucoteicoplanin) and its salts” (Gruppo Lepetit S.p.A., priority 1983, dated 1986).
In brackets after ≈: the same amount, converted by molar mass. Values belong to the compound of their own block, whether it stands above or below them.

Legend:
Solubility = assay type: physicochemical
[1] = Potentiometric titration profile; assay type: physicochemical; details: methylcellosolve/water 4:1, titration with 0.01N NaOH after excess of 0.01N HCl
[2] = tested on: Staphylococcus aureus Tour; test: In vitro antibacterial activity, two-fold dilution method in microtiter system (MIC); assay type: cell-based
Method: The in vitro antibacterial activity of deglucoteicoplanin was determined using the two-fold dilution method in microtiter system. Todd-Hewitt broth (Difco) was used for streptococci and Isosensitest broth (Oxoid) for staphylococci and gram-negative bacteria. […]

[3] = tested on: Escherichia coli SKF 12140; test: as above; assay type: cell-based
Method: (§1) The in vitro antibacterial activity of deglucoteicoplanin was determined using the two-fold dilution method in microtiter system. Todd-Hewitt broth (Difco) was used for streptococci and Isosensitest broth (Oxoid) for staphylococci and gram-negative bacteria. Overnight broth cultures were diluted so that the final inoculum was about 10^4 colony-forming units per ml (cfu/ml).

[4] = tested on: Proteus vulgaris X 19 H ATCC 881; test: as above; assay type: cell-based
Method: as §1

[5] = tested on: Pseudomonas aeruginosa ATCC 10145; test: as above; assay type: cell-based
Method: as §1

[6] = tested on: Staphylococcus aureus ATCC 6538; test: as above; assay type: cell-based; details: inoculum about 10^4 cfu/ml, 18-24 hours at 37° C.
Method: as §1

[7] = tested on: Staphylococcus epidermidis ATCC 12228; test: as above; assay type: cell-based
Method: as §1

[8] = tested on: Streptococcus faecalis ATCC 7080; test: as above; assay type: cell-based
Method: as §1

[9] = tested on: Streptococcus pneumoniae UC 41; test: as above; assay type: cell-based
Method: as §1

[10] = tested on: Streptococcus pyogenes C 203 SFK 13400; test: as above; assay type: cell-based
Method: as §1

S. aureus L 1096 = test: MIC against clinical isolate methicillin-resistant staphylococci; assay type: cell-based; set-up: unit not given here; details: S. aureus L 1096, clinical isolate methicillin-resistant
Method: as §1

S. aureus L 1097 = test: as above; assay type: cell-based; set-up: unit not given here; details: S. aureus L 1097, clinical isolate methicillin-resistant
Method: as §1

S. aureus L 1524 = test: as above; assay type: cell-based; set-up: unit not given here; details: S. aureus L 1524, clinical isolate methicillin-resistant
Method: as §1

S. aureus L 1526 = test: as above; assay type: cell-based; set-up: unit not given here; details: S. aureus L 1526, clinical isolate methicillin-resistant
Method: as §1

S. epidermidis 1142 = test: as above; assay type: cell-based; set-up: unit not given here; details: S. epidermidis 1142, clinical isolate methicillin-resistant
Method: as §1

S. epidermidis 1372 = test: as above; assay type: cell-based; set-up: unit not given here; details: S. epidermidis 1372, clinical isolate methicillin-resistant
Method: as §1

S. epidermidis 1378 = test: as above; assay type: cell-based; set-up: unit not given here; details: S. epidermidis 1378, clinical isolate methicillin-resistant
Method: as §1

S. epidermidis 785 = test: as above; assay type: cell-based; set-up: unit not given here; details: S. epidermidis 785, clinical isolate methicillin-resistant
Method: as §1

S. epidermidis 835 = test: as above; assay type: cell-based; set-up: unit not given here; details: S. epidermidis 835, clinical isolate methicillin-resistant
Method: as §1

S. pyogenes = test: Experimental infection in mice infected with S. pyogenes; assay type: in vivo; details: subcutaneous administration
[11] = tested on: staphylococci (S. aureus, S. epidermidis); test: In vitro antibacterial activity against staphylococci (summary); assay type: cell-based; details: in words
Method: as §1

[12] = tested on: clinical isolate methicillin-resistant staphylococci (S. aureus, S. epidermidis); test: In vitro antibacterial activity against methicillin-resistant staphylococci (summary); assay type: cell-based; details: in words
Method: as §1

solubility (Solubility; in methanol): slightly soluble
solubility (Solubility; in n-hexane, ethyl ether and acetone): almost insoluble
solubility (Solubility; in water at pH>8.0, in dimethylformamide, dimethylsulfoxide, propyleneglycol and methylcellosolve): freely soluble
pH1/2 value, third titration slope ([1]; five equivalents): 11
pH1/2 value, first titration slope ([1]; one equivalent): 5.0
pH1/2 value, second titration slope ([1]; one equivalent): 7.0
Structure (SMILES): CC(=O)N[C@@H]1[C@@H](O[C@H]2c3ccc(c(Cl)c3)Oc3cc4cc(c3O)Oc3ccc(cc3Cl)C[C@@H]3NC(=O)[C@@H](N)c5ccc(O)c(c5)Oc5cc(O)cc(c5)[C@@H](NC3=O)C(=O)N[C@@H]4C(=O)N[C@@H]3C(=O)N[C@H]2C(=O)N[C@@H](C(=O)O)c2cc(O)cc(O)c2-c2cc3ccc2O)O[C@@H](CO)[C@H](O)[C@H]1O (stereo in doubt) [antibiotic L 17046]

MIC ([2]; Inoculum: 10^6 cfu/ml): 0.2 µg/mL (≈ 0.167 µM)
MIC ([2]; in the presence of 30% bovine serum): 0.2 µg/mL
MIC ([2]; inoculum about 10^4 cfu/ml): 0.05 µg/mL (≈ 0.0417 µM)
MIC [3]: 25 µg/mL (≈ 20.9 µM)
MIC [4]: 50 µg/mL (≈ 41.7 µM)
MIC [5]: > 100 µg/mL
MIC [6]: 0.025 µg/mL (≈ 0.0209 µM)
MIC [7]: 0.0125 µg/mL (≈ 0.0104 µM)
MIC [8]: 0.1 µg/mL (≈ 0.0834 µM)
MIC [9]: 0.05 µg/mL (≈ 0.0417 µM)
MIC [10]: 0.05 µg/mL (≈ 0.0417 µM)
MIC (S. aureus L 1096): 0.05
MIC (S. aureus L 1097): 0.05
MIC (S. aureus L 1524): 0.1
MIC (S. aureus L 1526): 0.05
MIC (S. epidermidis 1142): 0.05
MIC (S. epidermidis 1372): 0.2
MIC (S. epidermidis 1378): 0.05
MIC (S. epidermidis 785): 0.05
MIC (S. epidermidis 835): 0.05
solubility (Solubility; in ethyl alcohol and dimethylformamide): slightly soluble
solubility (Solubility; in water at a pH higher than 9 and aqueous methanol, ethanol and acetone): soluble
Structure (SMILES): N[C@H]1C(=O)N[C@@H]2Cc3ccc(c(Cl)c3)Oc3cc4cc(c3O)Oc3ccc(cc3Cl)[C@@H](O)[C@@H]3NC(=O)[C@H](NC(=O)[C@@H]4NC(=O)[C@@H](NC2=O)c2cc(O)cc(c2)Oc2cc1ccc2O)c1ccc(O)c(c1)-c1c(O)cc(O)cc1[C@@H](C(=O)O)NC3=O [deglucoteicoplanin]
ED50 (S. pyogenes): 0.95 mg/kg
activity against staphylococci (S. aureus, S. epidermidis) [11]: very active
activity against clinical isolate methicillin-resistant staphylococci [12]: very effective
